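1) Cells in 96-well plates. 2) Compound, 48 h, 5 concentrations. 3) Linear interpolation between surrounding doses. 4) Unreached endpoint = highest concentration. TGI marks complete inhibition of growth.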
Experiments:
Test in all cases: inhibition of tumour cell growth, NCI panel, 48 h
[1] = system: HCC-2998 colon
[2] = system: BT-549 breast
[3] = system: NCI-H226 lung
[4] = system: MDA-MB-435
[5] = system: A549 NSCLC
[6] = system: OVCAR-3 ovarian
[7] = system: HCT-15 colon
[8] = system: SR leukemia
[9] = system: MDA-N
[10] = system: MALME-3M melanoma
[11] = system: PC-3 prostate
[12] = system: SNB-19 CNS
[13] = system: UACC-257 melanoma
[14] = system: KM12 colon
[15] = system: SNB-75 CNS
[16] = system: A498 renal
[17] = system: OVCAR-5 ovarian
[18] = system: OVCAR-4 ovarian
[19] = system: ACHN renal
[20] = system: UO-31 renal
[21] = system: CAKI-1 renal
[22] = system: RPMI-8226 leukemia
[23] = system: CCRF-CEM leukemia
[24] = system: NCI/ADR-RES ovarian
[25] = system: NCI-H522 lung
[26] = system: SK-MEL-2 melanoma
[27] = system: SK-OV-3 ovarian
[28] = system: LOX IMVI melanoma
[29] = system: SF-268 CNS
[30] = system: UACC-62 melanoma
[31] = system: IGROV1 ovarian
[32] = system: M14 melanoma
[33] = system: OVCAR-8 ovarian
[34] = system: 786-0 renal
[35] = system: NCI-H23 lung
[36] = system: NCI-H460 lung
[37] = system: MCF7 breast
[38] = system: MOLT-4 leukemia
[39] = system: SW-620 colon
[40] = system: TK-10 renal
[41] = system: HS 578T breast
[42] = system: SK-MEL-5 melanoma
[43] = system: T-47D breast
[44] = system: HOP-62 NSCLC
[45] = system: EKVX NSCLC
[46] = system: U251 CNS
[47] = system: SN12C renal
[48] = system: DU-145 prostate
[49] = system: HL-60(TB) leukemia
[50] = system: HT29 colon
[51] = system: RXF 393 renal
[52] = system: HCT-116 colon
[53] = system: SF-295 CNS
[54] = system: K-562 leukemia
[55] = system: MDA-MB-231 breast
[56] = system: SF-539 CNS
[57] = system: COLO 205 colon
[58] = system: SK-MEL-28 melanoma
[59] = system: HOP-92 NSCLC

CC(C)(C)[Si](C)(C)OCC1OC(n2cc(F)c(=O)[nH]c2=O)CC1O[Si](C)(C)C(C)(C)C (configuration not stated)
TGI [1]: 3.48 µM | TGI [2]: 17 µM | TGI [3]: 42.9 µM | TGI [4]: 26.5 µM | TGI [5]: 25.6 µM | TGI [6]: 32.5 µM | TGI [7]: 20.4 µM | TGI [8]: 7.08 µM | TGI [9]: 18.4 µM | TGI [10]: 31.2 µM | TGI [11]: 14.2 µM | TGI [12]: 25.3 µM | TGI [13]: 15.9 µM | TGI [14]: 14.7 µM | TGI [15]: 15.9 µM | TGI [16]: 21.1 µM | TGI [17]: 33 µM | TGI [18]: 17.4 µM | TGI [19]: 21.8 µM | TGI [20]: 23 µM | TGI [21]: 25.6 µM | TGI [22]: 12.9 µM | TGI [23]: 10.2 µM | TGI [24]: 35.6 µM | TGI [25]: 12.7 µM | TGI [26]: 29.7 µM | TGI [27]: 28.3 µM | TGI [28]: 20 µM | TGI [29]: 29.8 µM | TGI [30]: 15.7 µM | TGI [31]: 19.7 µM | TGI [32]: 30.9 µM | TGI [33]: 35.7 µM | TGI [34]: 20.9 µM | TGI [35]: 19.6 µM | TGI [36]: 15.7 µM | TGI [37]: 24.9 µM | TGI [38]: 22 µM | TGI [39]: 23.1 µM | TGI [40]: 13.9 µM | TGI [41]: 26.4 µM | TGI [42]: 17.1 µM | TGI [43]: 12.7 µM | TGI [44]: 30 µM | TGI [45]: 21.7 µM | TGI [46]: 22.5 µM | TGI [47]: 9.43 µM | TGI [48]: 11.3 µM | TGI [49]: 12.5 µM | TGI [50]: > 100 µM | TGI [51]: 16.2 µM | TGI [52]: 19.8 µM | TGI [53]: 21.4 µM | TGI [54]: 16 µM | TGI [55]: 22 µM | TGI [56]: 30.7 µM | TGI [57]: 19.5 µM

CCOC(=O)C1c2[nH]c3ccccc3c2CCN1C(=O)c1ccco1 (configuration not stated)
TGI [1]: > 10 µM | TGI [2]: > 10 µM | TGI [4]: > 10 µM | TGI [5]: > 10 µM | TGI [6]: > 10 µM | TGI [7]: > 10 µM | TGI [8]: > 10 µM | TGI [9]: > 10 µM | TGI [10]: > 10 µM | TGI [11]: > 10 µM | TGI [12]: > 10 µM | TGI [13]: > 10 µM | TGI [14]: > 10 µM | TGI [15]: > 10 µM | TGI [16]: > 10 µM | TGI [18]: > 10 µM | TGI [19]: > 10 µM | TGI [21]: > 10 µM | TGI [22]: > 10 µM | TGI [23]: > 10 µM | TGI [24]: > 10 µM | TGI [58]: > 10 µM | TGI [27]: > 10 µM | TGI [29]: > 10 µM | TGI [30]: > 10 µM | TGI [31]: > 10 µM | TGI [32]: > 10 µM | TGI [33]: > 10 µM | TGI [34]: > 10 µM | TGI [59]: > 10 µM | TGI [37]: > 10 µM | TGI [38]: > 10 µM | TGI [39]: > 10 µM | TGI [40]: > 10 µM | TGI [41]: > 10 µM | TGI [42]: > 10 µM | TGI [43]: > 10 µM | TGI [44]: > 10 µM | TGI [45]: > 10 µM | TGI [46]: > 10 µM | TGI [47]: > 10 µM | TGI [48]: > 10 µM | TGI [49]: > 10 µM | TGI [50]: > 10 µM | TGI [52]: > 10 µM | TGI [53]: > 10 µM | TGI [54]: > 10 µM | TGI [55]: > 10 µM | TGI [56]: > 10 µM | TGI [57]: > 10 µM

Source: PubChem BioAssay (NCI)
